Read-outs that look alike come from different tables or passages of the source.
Legend:
ZIKV replicon = experiment: ZIKV replication inhibition assay (NanoLuc replicon in Vero cells); settings: 72 h
[1] = molecular target: T1, West Nile Virus (WNV) NS2B-NS3 protease (West Nile virus, UniProt Q9Q6P4); experiment: WNV protease inhibition assay; assay type: biochemical; settings: Table 4; letter codes for IC50
T1 construct: NS2B1423-1470); purchased R&D 2907-SE-020
Source text: WNV protease inhibition assay

[2] = read-out: ZIKA Cell_Nanoluc, Vero cells with stable ZIKV replicon, Nano-Glo readout
[3] = Zika virus, Vero, read-out: ZIKA Cell_Nanoluc
[4] = Zika virus, Vero, read-out: ZIKA Cell_Nanoluc, Vero cells with stable ZIKV replicon, 72 h, Nano-Glo readout

T1 sequence (Q9Q6P4 1423-1470): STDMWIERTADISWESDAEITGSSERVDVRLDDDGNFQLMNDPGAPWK
T1 sequence (Q9Q6P4 1506-1689): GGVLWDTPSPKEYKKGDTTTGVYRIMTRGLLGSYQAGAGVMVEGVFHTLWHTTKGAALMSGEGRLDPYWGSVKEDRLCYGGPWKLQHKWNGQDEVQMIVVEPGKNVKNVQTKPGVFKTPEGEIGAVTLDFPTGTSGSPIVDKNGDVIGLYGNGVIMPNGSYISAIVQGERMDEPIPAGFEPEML

Q: Which results are given for `CN(C)C[C@H]1CC[C@H]([n+]2cc([N-]C(=O)Nc3cc(NC(=O)CCc4cn(C)c5ccccc45)cc(C(F)(F)F)c3)on2)CC1` [Example 157, (3-((1R,4R)-4-((Dimethylamino)methyl)-cyclohexyl)-1,2,3-oxadiazol-3-ium-5-yl)((3-(3-(1-methyl-1H-indol-3-yl)propanamido)-5-(trifluoromethyl)phenyl)carbamoyl)amide]?
A: EC50 (ZIKV replicon; [2]): 1 to 20 µM; IC50 [1]: < 0.1 µM

Q: What does the source list for `Cc1ncncc1[C@H]1CC[C@H](C[n+]2cc([N-]C(=O)Nc3ccnc(C(F)(F)F)c3)on2)CC1` [Example 241, (3-(((1R,4S)-4-(4-Methylpyrimidin-5-yl)cyclohexyl)methyl)-1,2,3-oxadiazol-3-ium-5-yl)((2-(trifluoromethyl)pyridin-4-yl)carbamoyl)-amide]?
A: EC50 (ZIKV replicon; [3]): 0.1 to 1 µM; IC50 [1]: < 0.1 µM

Q: With `O=C([N-]c1c[n+](C[C@H]2CC[C@H](c3cncnc3)CC2)no1)Nc1ccnc(C(F)(F)F)c1` [Example 187, (3-(((1R,4R)-4-(Pyrimidin-5-yl)cyclohexyl)-methyl)-1,2,3-oxadiazol-3-ium-5-yl)((2-(trifluoromethyl)pyridin-4-yl)carbamoyl)amide] as the compound, how does the EC50 (ZIKV replicon; [3]) read?
A: 0.1 to 1 µM

Q: And the IC50 [1]?
A: 0.1 to 1 µM

Q: What does the source list for `Cc1ccccc1CC(=O)Nc1cc(NC(=O)[N-]c2c[n+]([C@@H]3CCC[C@H](CN(C)C)C3)no2)cc(C(F)(F)F)c1` (stereo in doubt) [Example 247, rac-(3-((1R,3S)-3-((Dimethylamino)methyl)-cyclohexyl)-1,2,3-oxadiazol-3-ium-5-yl)((3-(2-(o-tolyl)acetamido)-5-(trifluoromethyl)phenyl)-carbamoyl)amide]?
A: EC50 (ZIKV replicon; [4]): 1 to 20 µM; IC50 [1]: 0.1 to 1 µM

Q: For `CN(C)C[C@H]1CC[C@H]([n+]2cc([N-]C(=O)Nc3cc(NC(=O)C4Cc5ccccc54)cc(C(F)(F)F)c3)on2)CC1` (stereo partly shown) [Example 195], which EC50 (ZIKV replicon; [3]) is on record?
A: 0.1 to 1 µM

Q: What about the IC50 [1] of the same compound?
A: 1 to 20 µM

Q: `O=C([N-]c1c[n+](Cc2ccc(-c3cncnc3)cc2)no1)Nc1ccnc(C(F)(F)F)c1` [Example 266, (3-(4-(Pyrimidin-5-yl)benzyl)-1,2,3-oxadiazol-3-ium-5-yl)((2-(trifluoromethyl)pyridin-4-yl)carbamoyl)amide] was tested. Which EC50 (ZIKV replicon; [2]) did it give?
A: < 0.1 µM

Q: What about the IC50 [1] of the same compound?
A: < 0.1 µM

Q: How did the EC50 (ZIKV replicon; [2]) turn out when `Cc1ccccc1CC(=O)Nc1cc(NC(=O)[N-]c2c[n+]([C@@H]3CCC[C@@H](C(N)=O)C3)no2)cc(C(F)(F)F)c1` [Example 267, (3-((1R,3R)-3-Carbamoylcyclohexyl)-1,2,3-oxadiazol-3-ium-5-yl)((3-(2-(o-tolyl)acetamido)-5-(trifluoromethyl)phenyl)carbamoyl)amide] was run?
A: 1 to 20 µM

Q: And the IC50 [1]?
A: 0.1 to 1 µM

Q: Which results are given for `COc1ncc(-c2ccc(C[n+]3cc([N-]C(=O)Nc4cc(NC(=O)Cc5ccccc5)cc(C(F)(F)F)c4)on3)cc2)c(C)n1` [Example 1, (3-(4-(2-Methoxy-4-methylpyrimidin-5-yl)benzyl)-1,2,3-oxadiazol-3-ium-5-yl)((3-(2-phenylacetamido)-5-(trifluoromethyl)phenyl)carbamoyl)amide]?
A: EC50 (ZIKV replicon; [4]): 1 to 20 µM; IC50 [1]: 1 to 20 µM

Q: `CN(C)C[C@H]1CC[C@H]([n+]2cc([N-]C(=O)Nc3cc(NC(=O)Cc4cn(C)c5ccccc45)cc(C(F)(F)F)c3)on2)CC1` [Example 161, (3-((1R,4R)-4-((dimethylamino)methyl)-cyclohexyl)-1,2,3-oxadiazol-3-ium-5-yl)((3-(2-(1-methyl-1H-indol-3-yl)acetamido)-5-(trifluoromethyl)phenyl)carbamoyl)amide] was tested. Which EC50 (ZIKV replicon; [3]) did it give?
A: 1 to 20 µM

Q: What about the IC50 [1] of the same compound?
A: 0.1 to 1 µM

Q: What does the source list for `O=C([N-]c1c[n+](CC2CCCc3ccccc32)no1)Nc1ccnc(C(F)(F)F)c1` (racemic) [Example 200, Rac-(3-((1,2,3,4-Tetrahydronaphthalen-1-yl)methyl)-1,2,3-oxadiazol-3-ium-5-yl)((2-(trifluoromethyl)pyridin-4-yl)carbamoyl)amide]?
A: EC50 (ZIKV replicon; [4]): 0.1 to 1 µM; IC50 [1]: 0.1 to 1 µM

Q: How did the EC50 (ZIKV replicon; [3]) turn out when `Cc1ccccc1CC(=O)Nc1cc(NC(=O)[N-]c2c[n+]([C@H]3CC[C@H](C(=O)O)CC3)no2)cc(C(F)(F)F)c1` [Example 229, (3-((1R,4R)-4-Carboxycyclohexyl)-1,2,3-oxadiazol-3-ium-5-yl)((3-(2-(o-tolyl)acetamido)-5-(trifluoromethyl)phenyl)carbamoyl)amide] was run?
A: 1 to 20 µM

Q: And the IC50 [1]?
A: 0.1 to 1 µM

Q: `Cc1ncnc(C)c1-c1ccc(C[n+]2cc([N-]C(=O)Nc3ccc(C#N)c(C(F)(F)F)c3)on2)cc1` [Example 207, ((4-Cyano-3-(trifluoromethyl)phenyl)-carbamoyl)(3-(4-(4,6-dimethylpyrimidin-5-yl)benzyl)-1,2,3-oxadiazol-3-ium-5-yl)amide] was tested. Which EC50 (ZIKV replicon; [4]) did it give?
A: 0.1 to 1 µM

Q: And the IC50 [1]?
A: 0.1 to 1 µM

Q: For `Cc1cn(C2COC2)nc1-c1ccc(C[n+]2cc([N-]C(=O)Nc3ccnc(C(F)(F)F)c3)on2)cc1` [Example 250, (3-(4-(4-Methyl-1-(oxetan-3-yl)-1H-pyrazol-3-yl)benzyl)-1,2,3-oxadiazol-3-ium-5-yl)((2-(trifluoromethyl)pyridin-4-yl)carbamoyl)amide], which EC50 (ZIKV replicon; [4]) is on record?
A: 0.1 to 1 µM

Q: What about the IC50 [1] of the same compound?
A: 0.1 to 1 µM

Q: Which EC50 (ZIKV replicon; [3]) does the source give for `CN(C)C[C@H]1CC[C@H]([n+]2cc([N-]C(=O)Nc3cc(NC(=O)Cc4cccc(O)n4)cc(C(F)(F)F)c3)on2)CC1` [Example 196, (3-((1R,4R)-4-((Dimethylamino)methyl)-cyclohexyl)-1,2,3-oxadiazol-3-ium-5-yl)((3-(2-(6-hydroxypyridin-2-yl)acetamido)-5-(trifluoromethyl)phenyl)carbamoyl)amide] here?
A: 0.1 to 1 µM

Q: And the IC50 [1]?
A: 1 to 20 µM

Q: For `CNC(=O)[C@H]1CC[C@H]([n+]2cc([N-]C(=O)Nc3cc(NC(=O)Cc4ccccc4C)cc(C(F)(F)F)c3)on2)CC1` [Example 251, rac-(3-((1R,4R)-4-(Methylcarbamoyl)-cyclohexyl)-1,2,3-oxadiazol-3-ium-5-yl)((3-(2-(o-tolyl)acetamido)-5-(trifluoromethyl)phenyl)-carbamoyl)amide], which EC50 (ZIKV replicon; [3]) is on record?
A: 1 to 20 µM

Q: And the IC50 [1]?
A: 0.1 to 1 µM

Q: For `Cc1nn(C)cc1-c1ccc(C[n+]2cc([N-]C(=O)Nc3ccnc(C(F)(F)F)c3)on2)cc1` [Example 237, (3-(4-(1,3-Dimethyl-1H-pyrazol-4-yl)benzyl)-1,2,3-oxadiazol-3-ium-5-yl)((2-(trifluoromethyl)-pyridin-4-yl)carbamoyl)amide], which EC50 (ZIKV replicon; [4]) is on record?
A: 1 to 20 µM

Q: What about the IC50 [1] of the same compound?
A: 0.1 to 1 µM

Q: Which results are given for `COC(=O)[C@H]1CC[C@H]([n+]2cc([N-]C(=O)Nc3cc(NC(=O)Cc4ccccc4C)cc(C(F)(F)F)c3)on2)CC1` [Example 227, (3-((1R,4R)-4-(Methoxycarbonyl)cyclohexyl)-1,2,3-oxadiazol-3-ium-5-yl)((3-(2-(o-tolyl)-acetamido)-5-(trifluoromethyl)phenyl)carbamoyl) amide]?
A: EC50 (ZIKV replicon; [3]): 1 to 20 µM; IC50 [1]: < 0.1 µM

Q: How did the EC50 (ZIKV replicon; [4]) turn out when `O=C([N-]c1c[n+]([C@H]2CCC[C@H](c3cncnc3)C2)no1)Nc1ccnc(C(F)(F)F)c1` [Example 219, (3-((1S,3S)-3-(Pyrimidin-5-yl)cyclohexyl)-1,2,3-oxadiazol-3-ium-5-yl)((2-(trifluoromethyl)pyridin-4-yl)carbamoyl)amide] was run?
A: 1 to 20 µM

Q: What about the IC50 [1] of the same compound?
A: 0.1 to 1 µM

Q: `Cc1ccnc(C)c1-c1ccc(C[n+]2cc([N-]C(=O)Nc3ccnc(C(F)(F)F)c3)on2)cc1` [Example 263, (3-(4-(2,4-Dimethylpyridin-3-yl)benzyl)-1,2,3-oxadiazol-3-ium-5-yl)((2-(trifluoromethyl)pyridin-4-yl)carbamoyl)amide] was tested. Which EC50 (ZIKV replicon; [4]) did it give?
A: < 0.1 µM

Q: What about the IC50 [1] of the same compound?
A: < 0.1 µM

Q: What does the source list for `O=C([N-]c1c[n+](Cc2ccc(-c3cncnc3)cc2)no1)Nc1ccnc(C(F)(F)F)c1` [Example 236, (3-(4-(Pyrimidin-5-yl)benzyl)-1,2,3-oxadiazol-3-ium-5-yl)((2-(trifluoromethyl)pyridin-4-yl)-carbamoyl)amide]?
A: EC50 (ZIKV replicon; [4]): 0.1 to 1 µM; IC50 [1]: 0.1 to 1 µM

Q: For `CN(C)C[C@H]1CC[C@H]([n+]2cc([N-]C(=O)Nc3cc(NC(=O)Cc4cccc(CN)c4)cc(C(F)(F)F)c3)on2)CC1` [Example 163, ((3-(2-(3-(Aminomethyl)phenyl)acetamido)-5-(trifluoromethyl)phenyl)carbamoyl)(3-((1R,4R)-4-((dimethylamino)methyl)cyclohexyl)-1,2,3-oxadiazol-3-ium-5-yl)amide], which EC50 (ZIKV replicon; [3]) is on record?
A: 1 to 20 µM

Q: And the IC50 [1]?
A: 0.1 to 1 µM

Q: With “(3-((1R,4R)-4-((Dimethylamino)methyl)-cyclohexyl)-1,2,3-oxadiazol-3-ium-5-yl)((3-(2-(3- methoxyphenyl)acetamido)-5-(trifluoromethyl)- phenyl)carbamoyl)amide [Example 152]” as the compound, how does the EC50 (ZIKV replicon; [2]) read?
A: 1 to 20 µM

Q: What about the IC50 [1] of the same compound?
A: 0.1 to 1 µM

Q: Which results are given for `O=C([N-]c1c[n+](C[C@H]2CC[C@H](c3cncnc3)CC2)no1)Nc1cccc(C(F)(F)F)c1` [Example 186, (3-(((1R,4R)-4-(Pyrimidin-5-yl)cyclohexyl)methyl)-1,2,3-oxadiazol-3-ium-5-yl)((3-(trifluoromethyl)phenyl)carbamoyl)amide]?
A: EC50 (ZIKV replicon; [3]): 1 to 20 µM; IC50 [1]: 0.1 to 1 µM

Q: For `Cc1ccccc1CC(=O)Nc1cc(NC(=O)[N-]c2c[n+]([C@@H]3CCC[C@@H](C(N)=O)C3)no2)cc(C(F)(F)F)c1` [Example 235, (3-((1R,3R)-3-Carbamoylcyclohexyl)-1,2,3-oxadiazol-3-ium-5-yl)((3-(2-(o-tolyl)acetamido)-5-(trifluoromethyl)phenyl)carbamoyl)amide], which EC50 (ZIKV replicon; [2]) is on record?
A: 0.1 to 1 µM

Q: And the IC50 [1]?
A: < 0.1 µM

Q: What does the source list for `CN1CCc2ccccc2C1C[n+]1cc([N-]C(=O)Nc2ccnc(C(F)(F)F)c2)on1` (racemic) [Example 181, rac-(3-((2-Methyl-1,2,3,4-tetrahydroisoquinolin-1-yl)methyl)-1,2,3-oxadiazol-3-ium-5-yl)((2-(trifluoromethyl)pyridin-4-yl)carbamoyl)amide]?
A: EC50 (ZIKV replicon; [4]): 0.1 to 1 µM; IC50 [1]: < 0.1 µM

Q: Which EC50 (ZIKV replicon; [3]) does the source give for `CN(C)C[C@H]1CC[C@H]([n+]2cc([N-]C(=O)Nc3cc(NC(=O)Cc4ccccc4O)cc(C(F)(F)F)c3)on2)CC1` [Example 191, (3-((1R,4R)-4-((Dimethylamino)methyl)-cyclohexyl)-1,2,3-oxadiazol-3-ium-5-yl)((3-(2-(2-hydroxyphenyl)acetamido)-5-(trifluoromethyl)-phenyl)carbamoyl)amide] here?
A: < 0.1 µM

Q: What about the IC50 [1] of the same compound?
A: 1 to 20 µM

From patent EP4563146A1 (IRBM S.P.A., priority 2023, dated 2025)
